Assays:
Assay type in all cases: cell-based, human
monocytes in whole blood = experiment: Heme-induced tissue factor expression on monocytes in whole blood, flow cytometry; conditions: hirudin whole blood; for Q2 % Parent TF+: CD14 monocytes, inhibitor 1 μM, heme 100 μM, 4 hrs 37° C., Table 5
Procedure: Human whole blood was obtained internally from healthy donors according to Institutional Review Board protocol. Blood was drawn into custom hirudin blood draw tubes obtained from Haematologic Technologies (cat. SCAT-296-5/5, 500 ATU/mL). This anti-coagulant allows simultaneous activation of complement and coagulation (through but not beyond thrombin). Blood was aliquoted into facs tubes (0.2 mL per tube) and inhibitors added to 1 μM. Heme was added to 100 μM and the samples were incubated for 4 hrs at 37° C., 5% CO2, mixing approximately every 30 minutes. To stain for flow cytometry, 10 μL of TruStain FcX (Biolegend, cat. 422302) was added for a 5-10 minute incubation at RT (to block IgG receptors). Mouse anti-human CD14 PerCP Cy5.5 (BD Biosciences, cat. 550787) (5 μL per sample) and mouse anti-human tissue factor-PE (BD Biosciences, cat. 550312) were added (20 μL per sample) and the samples were mixed and incubated for 30 minutes at RT. To lyse RBCs, 3 mLs of 1× lysis buffer (BD Biosciences Cat. 555899) was added to each tube followed by vortexing and incubation for 20 min at RT. The samples were centrifuges at 340 g for 5 minutes and washed twice with PBS. Cell pellets were resuspended in 0.5 mL PBS and acquired on the LSR Fortessa for flow cytometric analysis. Monocytes were gated via CD14 triggering and data was expressed as percentage of CD14 monocytes positive for tissue factor (TF).

SS-RBCs [1] = experiment: Heme-induced complement (iC3b, C5b-9) deposition on SS-RBCs, flow cytometry; conditions: for Q2 % Parent iC3b+ / Q2 % Parent C5b-9+: 20% autologous serum, heme 400 μM, 20-30 min 37° C.; for Q2 % Parent iC3b+: Table 3, FIG. 2A; for Q2 % Parent C5b-9+: Table 3, FIG. 2B; for effect on heme-induced C3 deposition (opsonization) on SS-RBCs / effect on heme-induced C5b-9 (MAC) deposition on SS-RBCs: heme and autologous serum; for effect on heme-induced C3 deposition (opsonization) on SS-RBCs: FIG. 2A; for effect on heme-induced C5b-9 (MAC) deposition on SS-RBCs: FIG. 2B
Excerpt: (§1) RBCs and serum from SCD patients homozygous for the mutation in the hemoglobin gene (SS) were obtained from BioIVT (cat HUMANRBCALSUZN and HMRBC-SCA respectively) and from Sanguine Biosciences (Study #24348). Gelatin Veronal Buffer (GVB) was obtained from Boston Bioproducts (cat. IBB-300X). Mg-EGTA (cat. B106), C8 depleted normal human serum (cat. A325) and normal human serum (cat. NHS) were obtained from Complement Technology. PBS was obtained from Corning, cat. 21-031-CV. Porcine heme (Sigma, cat. 51280) was used at various concentrations (50-800 uM) to amplify complement activation and induce deposition on human cells.
(§2) All centrifugations were performed at 440×g for 5 min at 4° C. and supernatants aspirated with multi-channel pipets to avoid disturbing the loose RBC pellets.
Patient SS-RBCs were washed two or three times in PBS. To induce complement deposition, RBCs were resuspended in GVB, 5 mM Mg-EGTA (assay buffer) at 5×10^7 cells/mL and 30 μL added to sterile V-96 wells. Autologous serum was added to 20% final concentration. Complement inhibitors were diluted in assay buffer at 5× working stock of 3.125 μM and 10 μL added to wells containing cells. Porcine heme was added to 400 μM and the cells incubated for 20-30 minutes at 37° C., 5% CO2. Complement activation was stopped by the addition of 150 μL/well PBS containing 10 mM EDTA. Cells were centrifuged and washed once with 200 μL PBS and stained for iC3b and C5b-9 deposition below.
Flow cytometric Analysis of iC3b and C5b-9 Deposition on the Surface of SS-RBCs
(§3) Cells were resuspended in 50 μL per well iC3b (Quidel, cat. A209) or C5b-9 antibody (Quidel, cat. A239) diluted to 4 μg/mL in PBS and incubated for 20-30 min at 4° C. (in some cases, staining for flow cytometry was performed in sheath fluid). Cells were washed twice with 150-200 μL PBS, resuspended in 50 μL goat anti-mouse IgG (H+L)-AF488 (Invitrogen cat. A11029) diluted to 4 μg/mL in PBS and incubated for 20-30 min at 4° C. In some experiments, goat anti-mouse IgG2b AF488 was used at 4 μg/mL (Invitrogen, cat. A21141). Cells were washed twice with 150-200 μL PBS and acquired on the LSR Fortessa for flow cytometric analysis.

HMEC-1 cells = experiment: Heme-induced complement (iC3b, C5b-9) deposition on HMEC-1 cells, flow cytometry; conditions: for Q2 % Parent iC3b+ / Q2 % Parent C5b-9+: HMEC-1, 20% normal human serum, 1 uM inhibitor, heme 400 μM, 20-30 min 37° C.; for Q2 % Parent iC3b+: Table 4, FIG. 4A; for Q2 % Parent C5b-9+: Table 4, FIG. 4B; for effect on heme-induced C3 deposition on endothelial cells / effect on heme-induced C5b-9 (MAC, TCC) deposition on endothelial cells: HMEC-1, heme and NHS; for effect on heme-induced C3 deposition on endothelial cells: FIG. 4A; for effect on heme-induced C5b-9 (MAC, TCC) deposition on endothelial cells: FIG. 4B
Procedure: The endothelial cell line HMEC-1 was purchased from ATCC (CRL 3243) and expanded and banked at AcCellerate (Cat. CBA02, lot 92-190318FG01). This is a dermal microvascular endothelial cell line. Cells were used in experiments at passage <5.
All centrifugation steps were performed for 5-7 min at 200-300 g at room temperature (RT). HMEC-1 cells were seeded into 6 well plates at 1.5×10^5 cells per well in medium (Endothelial cell growth medium MV2, Promocell, cat. 22022) and allowed to reach confluency (72 hrs). Normal human serum (Complement Technologies, cat. NHS) was spiked with 1 uM inhibitor, diluted to 20% using Live cell imaging solution (LCIS) (Invitrogen, cat A1429DJ) containing 5-10 mM MgEGTA and added to HMEC-1 cultures in place of the medium. Heme was added to 400 μM, mixed and incubated for 20-30 min at 37° C. Cells were rinsed twice with 2 mLs PBS (Corning, cat. 21-031-CV) and detached with PBS containing 10 mM EDTA (Corning, cat. 46-034-CI). Cells were centrifuged, pellets resuspended in 400 μL sheath fluid (BD Biosciences, cat. 342003) and transferred to V-bottom 96 well plates in duplicate. After centrifugation, pellets were resuspended in 50 μL per well sheath fluid containing either iC3b or C5b-9 antibody diluted to 4 μg/mL. Following several washes, the cells were incubated with 50 μL of goat anti mouse IgG (H+L) AF 488 diluted to 4 μg/mL in sheath fluid for 30 min at 4° C. Following several washes, cells were acquired on the LSR Fortessa for flow cytometry analysis.

SS-RBCs [2] = experiment: Heme dose-dependent induction of iC3b deposition on SS-RBCs
Excerpt: as §1, §2
Patient SS-RBCs were washed three times in PBS, resuspended in GVB, 5 mM Mg-EGTA and re-distributed to sterile V-bottom 96 well plates at a concentration of 2×10^6 cells/well. […] Heme was used at 0, 100, 200, 400, and 800 μM. Following incubation for 20-30 minutes at 37° C. 5% CO2, PBS containing 10% EDTA (Corning, cat. 46-030-CI) was added to stop complement activation. RBCs were washed and stained with antibody to iC3b as detailed below.
as §3

whole blood = experiment: IL-8 production in whole blood model of thromboinflammation; conditions: heme, FIG. 6

`CC(=O)c1nn(CC(=O)N2[C@H](C(=O)Nc3nc(Br)ccc3C)C[C@@]3(C)C[C@@H]23)c2ccc(-c3cnc(C)nc3)cc12` [ALXN2050, vermincopan] was tested, and the “Q2 % Parent TF+” value (monocytes in whole blood) was 1.4%, the “Q2 % Parent iC3b+” value (SS-RBCs [1]) was 3.5% and the “Q2 % Parent C5b-9+” value (SS-RBCs [1]) was 3.4%. The “Q2 % Parent iC3b+” value (HMEC-1 cells) was 3.4%, the “Q2 % Parent C5b-9+” value (HMEC-1 cells) was 3% and the “effect on heme-induced C3 deposition on endothelial cells” value (HMEC-1 cells) was “block”. The “effect on heme-induced C5b-9 (MAC, TCC) deposition on endothelial cells” value (HMEC-1 cells) was “block”.

For `C=CC1=C(C)c2cc3[n-]c(cc4[n-]c(cc5nc(cc1n2)C(C)=C5C=C)c(C)c4CCC(=O)O)c(CCC(=O)O)c3C.[Fe+2]` [heme], the “Q2 % Parent iC3b+” value (SS-RBCs [2]; 100 uM heme, 20% SS-Serum) was 18.3%, the “Q2 % Parent iC3b+” value (SS-RBCs [2]; 100 uM heme, No Serum) was 2% and the “Q2 % Parent iC3b+” value (SS-RBCs [2]; 200 uM Heme, 20% SS-Serum) was 22.8%. For the same molecule, the “Q2 % Parent iC3b+” value (SS-RBCs [2]; 200 uM Heme, No Serum) was 1.3%, the “Q2 % Parent iC3b+” value (SS-RBCs [2]; 400 uM heme, 20% SS-Serum) was 49.6% and the “Q2 % Parent iC3b+” value (SS-RBCs [2]; 400 uM heme, No Serum) was 1.1%. The “Q2 % Parent iC3b+” value (SS-RBCs [2]; 800 uM heme, 20% SS-Serum) was 69.7%, the “Q2 % Parent iC3b+” value (SS-RBCs [2]; 800 uM heme, No Serum) was 0.8% and the “induction of C3 deposition (opsonization) on SS-RBCs” value (SS-RBCs [2]; heme 100-800 μM, 20% autologous serum, FIG. 3) was “potent and dose dependent opsonization”.

B1: Crizanlizumab: antibody manufactured using the published sequence of Crizanlizumab, an anti-P-selectin antibody FDA approved for prevention of VOC in SCD (antibody, chains of the INN, looked up, V domains shown)
VH: QVQLVQSGAEVKKPGASVKVSCKVSGYTFTSYDINWVRQAPGKGLEWMGWIYPGDGSIKYNEKFKGRVTMTVDKSTDTAYMELSSLRSEDTAVYYCARRGEYGNYEGAMDYWGQGTLVTVSS
VL: DIQMTQSPSSLSASVGDRVTITCKASQSVDYDGHSYMNWYQQKPGKAPKLLIYAASNLESGVPSRFSGSGSGTDFTLTISSLQPEDFATYYCQQSDENPLTFGGGTKVEIK
For B1, the “effect on IL-8 production” value (whole blood) was “no effect”, the “Q2 % Parent TF+” value (monocytes in whole blood) was 23.2% and the “effect on heme-induced TF upregulation by monocytes” value (monocytes in whole blood; heme, FIG. 5A, FIG. 5B) was “no effect”. For the same molecule, the “Q2 % Parent iC3b+” value (SS-RBCs [1]) was 38.6%, the “Q2 % Parent C5b-9+” value (SS-RBCs [1]) was 7.3% and the “effect on heme-induced C3 deposition (opsonization) on SS-RBCs” value (SS-RBCs [1]) was “little to no effect”. The “effect on heme-induced C3 deposition (opsonization) on SS-RBCs” value (SS-RBCs [1]; listed as anti-P-selectin antibody) was “no effect”, the “effect on heme-induced C5b-9 (MAC) deposition on SS-RBCs” value (SS-RBCs [1]) was “little to no effect” and the “effect on heme-induced C5b-9 (MAC) deposition on SS-RBCs” value (SS-RBCs [1]; listed as anti-P selectin antibody) was “no effect”. For the same molecule, the “Q2 % Parent iC3b+” value (HMEC-1 cells) was 82.9%, the “Q2 % Parent C5b-9+” value (HMEC-1 cells) was 53.7% and the “effect on heme-induced C3 deposition on endothelial cells” value (HMEC-1 cells) was “no effect”. The “effect on heme-induced C5b-9 (MAC, TCC) deposition on endothelial cells” value (HMEC-1 cells) was “no effect”.
